# Assay results from patent US9387221B2, “SDF-1 binding nucleic acids and the use thereof in cancer treatment” (NOXXON Pharma AG, priority 2010, dated 2016).
# Entries after “also recorded” stand apart in the source; their conditions may differ.
# System: biotinylated human D-SDF-1
# Test: Competitive pull-down binding assay
# Settings: aptamer level; reference 192-A10-001
# Procedure: In order to compare different D-SDF-1 binding aptamers, a competitive ranking assay was performed. For this purpose the most affine aptamer available was radioactively labeled (see above) and served as reference. […] An excess of de- and renatured non-labeled D-RNA aptamer variants was added to different concentrations (e.g. 2, 10, and 50 nM) with the labeled reference aptamer to parallel binding reactions. The aptamers to be tested competed with the reference aptamer for target binding, thus decreasing the binding signal in dependence of their binding characteristics.
row,Substance,binding affinity in competitive pull-down binding assay vs. 192-A10-001
1,"GCUGUGAAAGUAACAUGUCAAUGAAAGGUAACCACAGC (aptamer; Made as D-RNA aptamer and L-RNA Spiegelmer, tested form not given here, further chemistry not given here) [192-G10]",Weaker binding affinity
2,"AGCGUGAAAGUAACACGUAAAAUGAAAGGUAACCACGCU (Made as D-RNA aptamer and L-RNA Spiegelmer, tested form not given here, further chemistry not given here) [191-A6]",Weaker binding affinity
3,GUGUUGCGGAGGUUAGGGCUAGAAGUCGGUCAGCAGCAC (chemistry not given here) [197-H1],weaker binding affinities
4,GUGCUGCCGGGGUUAGGGCUAA-AGUCGGCCGACAGCAC (GUGCUGCCGGGGUUAGGGCUAAAGUCGGCCGACAGCAC; chemistry not given here) [197-D1],Much weaker binding affinity
5,AGCGUGGUGUGAUCUAGAUGUAGUGGCUGAUCCUAGUCAGGUACGCU (chemistry not fully specified) [193-C2-001],superior binding
6,"GCUGUGAAAGUAACAAGUCAAUGAAAGGUAACCACAGC (aptamer; Made as D-RNA aptamer and L-RNA Spiegelmer, tested form not given here, further chemistry not given here) [192-C10]",equal binding affinities; also recorded: equal binding affinity
7,"GCUGCGAAAGCGACAUGUCAAUGAAAGGUAGCCGCAGC (aptamer; Made as D-RNA aptamer and L-RNA Spiegelmer, tested form not given here, further chemistry not given here) [192-D10]",much weaker binding affinity
8,GUGCUGUGGGGGUCAGGGCUAGAAGUCGGCCUGCAGCAC (chemistry not given here) [197-D2],Much weaker binding affinity
9,"GCUAUGAAAGUAACAUGUCAAUGAAAGGUAACCAUAGC (aptamer; Made as D-RNA aptamer and L-RNA Spiegelmer, tested form not given here, further chemistry not given here) [192-H11]",Weaker binding affinity
10,"GCUGUGAAAGUAACACGUCAAUGAAAGGUAACCACAGC (aptamer; Made as D-RNA aptamer and L-RNA Spiegelmer, tested form not given here, further chemistry not given here) [192-B11]",equal binding affinities; also recorded: equal binding affinity
11,"GCUGUGAAAGCAACAUGUCAAUGAAAGGUAGCCACAGC (aptamer; Made as D-RNA aptamer and L-RNA Spiegelmer, tested form not given here, further chemistry not given here) [192-E9]",much weaker binding affinity
12,"CGUGCGCUUGAGAUAGGGGUUAGGGCUUAAAGUCGGCUGAUUCUCACG (Made as D-RNA aptamer and L-RNA Spiegelmer, tested form not given here, further chemistry not given here) [190-A3-001]",weaker binding affinities
13,AGCGUGGUGUGAUCUAGAUGUAAUGGCUGAUCCUAGUCAGGUGCGCU (chemistry not fully specified) [193-F2-001],superior binding
14,"GCAGUGAAAGUAACAUGUCAAUGAAAGGUAACCACAGC (aptamer; Made as D-RNA aptamer and L-RNA Spiegelmer, tested form not given here, further chemistry not given here) [192-D11]",Weaker binding affinity
15,GUGUUCCCGGGGUUAGGGCUUGAAGUCGGCCGGCAGCAC (aptamer; chemistry not fully specified) [197-B1],Much weaker binding affinity
16,"GCUGUAAAAGUAACAUGUCAAUGAAAGGUAACUACAGC (aptamer; Made as D-RNA aptamer and L-RNA Spiegelmer, tested form not given here, further chemistry not given here) [192-C9]",Weaker binding affinity

# Same assay, conditions: compared with 190-A3-001
row,Substance,binding affinity of derivatives of 190-A3-001
1,"GGGGUUAGGGCUUAAAGUCGGCUGAUUCU (Made as D-RNA aptamer and L-RNA Spiegelmer, tested form not given here, further chemistry not given here) [190-A3-007]",very strong reduction of binding affinity

# Same assay, conditions: reference 191-D5-001
row,Substance,binding affinity in competitive pull-down binding assay vs. 191-D5-001
1,"CGGGCGAGGUUAGGGCUAGAAGUCGGUCGACCG (Made as D-RNA aptamer and L-RNA Spiegelmer, tested form not given here, further chemistry not given here) [191-D5-004]",reduced binding affinity

# Same assay, conditions: reference 191-D5-007
row,Substance,binding affinity in competitive pull-down binding assay vs. 191-D5-007
1,GGGCGGGUUAGGGCUAGAAGUCGGCGCCC (chemistry not fully specified) [191-D5-024-29b],identical binding affinity to SDF-1 as 191-D5-007
2,CGGCGGGUUAGGGCUAGAAGUCGGCGCCG (chemistry not fully specified) [191-D5-024-29a],identical binding affinity to SDF-1 as 191-D5-007
3,GGCGGGUUAGGGCUAGAAGUCGGCGCC (chemistry not fully specified) [191-D5-024],reduced binding affinity
4,CCGCGGUUAGGGCUAGAAGUCGGGCGG (chemistry not given here) [191-D5-017],reduced binding affinity

# Same assay, conditions: reference 193-G2-001
row,Substance,binding to human SDF-1 in comparison to 193-G2-001
1,GCGUGGUGUGAUCUAGAUGUAAAGGCUGAUCCUAGUCAGGUACGC (chemistry not fully specified) [193-H3-002],reduced binding
2,GCGUGGUGUGAUCUAGAUGUAGAGGCUGAUCCUAGUCAGGUACGC (chemistry not fully specified) [193-B3-002],reduced binding
3,GCGUGGUGUGAUCUAGAUGUAGUGGCUGAUCCUAGUUAGGUACGC (chemistry not fully specified) [193-D1-002],reduced binding
4,GCGUGGUGUGAUCUAGAUGUAAUGGCUGAUCCUAGUCAGGGACGC (chemistry not fully specified) [193-D3-002],reduced binding; also recorded: weaker binding affinities
5,GUGGUGUGAUCUAGAUGUAGUGGCUGUUCCUAGUCAGGUAUGC (chemistry not fully specified) [193-E3-002],reduced binding

# Same assay, conditions: vs. 192-A10-001 and 192-A10-008
row,Substance,binding affinity of derivatives of 192-A10-001 in competitive pull-down binding assay
1,GCGCAAAGCAACAUGUCAAUGAAAGGUAGCGUGC (aptamer; chemistry not given here) [192-A10-017],"weaker, much weaker or very much weaker binding affinity"
2,UGAAAGCAACAUGUCAAUGAAAGGUAGCCG (chemistry not fully specified) [192-A10-005],reduced binding affinity
3,AAAGCAACAUGUCAAUGAAAGGUAGC (chemistry not fully specified) [192-A10-007],reduced binding affinity
4,CGUGAAAGCAACAUGUCAAUGAAAGGUAGCCGCG (aptamer; chemistry not given here) [192-A10-016],"weaker, much weaker or very much weaker binding affinity"
5,CCCCAAAGCAACAUGUCAAUGAAAGGUAGCGGGG (aptamer; chemistry not given here) [192-A10-023],"weaker, much weaker or very much weaker binding affinity"
6,GCGGAAAGCAACAUGUCAAUGAAAGGUAGCCCGC (aptamer; chemistry not given here) [192-A10-014],"weaker, much weaker or very much weaker binding affinity"
7,"GCGCGAAAGCAACAUGUCAAUGAAAGGUAGCCGCGC (aptamer; Made as D-RNA aptamer and L-RNA Spiegelmer, tested form not given here, further chemistry not given here) [192-A10-015]","reduced binding affinity; also recorded: weaker, much weaker or very much weaker binding affinity"
8,GUGCAAAGCAACAUGUCAAUGAAAGGUAGCGCGC (aptamer; chemistry not given here) [192-A10-018],"weaker, much weaker or very much weaker binding affinity"
9,GAAAGCAACAUGUCAAUGAAAGGUAGCC (chemistry not fully specified) [192-A10-006],reduced binding affinity

# Same assay, conditions: vs. 193-G2-001 and 193-G2-012
row,Substance,binding affinity of derivatives of 193-G2-001 and 193-C2-001 in competitive pull-down binding assay
1,GGCCGUGUGAUCUAGAUGUAUUGGCUGAUCCUAGUCAGGGGCC (chemistry not fully specified) [193-G2-016],reduced binding affinity
2,GCGCGGUGUGAUCUAGAUGUAUUGGCUGAUCCUAGUCAGGCGCGC (chemistry not fully specified) [193-G2-013],reduced binding affinity
3,GCCCGUGUGAUCUAGAUGUAUUGGCUGAUCCUAGUCAGGGGGC (chemistry not fully specified) [193-G2-017],reduced binding affinity
4,GGGCGUGUGAUCUAGAUGUAUUGGCUGAUCCUAGUCAGGGCCC (chemistry not fully specified) [193-G2-015],reduced binding affinity
